Laboratory results: paper PMC4721142, “Randomized controlled studies on the efficacy of antiarthritic agents in inhibiting cartilage degeneration and pain associated with progression of osteoarthritis in the rat” (Arthritis Research & Therapy, 2016)
“And” between values parts separate entries of the source, which are not always exact repeats. Equal values may be shown once.

Experiments:
MMT/MCLT rat model of OA [1] = assay: MMT/MCLT trial 1 histopathology (same doses); type: in vivo; conditions: low or only dose
Excerpt: (§1) For MMT/MCLT rat knee joints, sections were cut in 200-μm steps; stained with toluidine blue (also with a right and left half per section); and similarly analyzed for cartilage degeneration, proteoglycan loss, collagen damage, and osteophyte formation. Results were averaged across the three sections for an overall semiquantitative score. Regional differences across the tibial plateau were taken into consideration by dividing each section into three zones delineated using an ocular micrometer (outside, middle, and inside). Scores were based on the percentage of area affected within the zone.
(§2) Cartilage degeneration in the tibia was scored on a 5-point scale as detailed in the Methods section of Additional file 1. The total extent of degeneration of the tibial plateau was measured (in micrometers) and included an analysis of cell loss, proteoglycan loss, and collagen damage. Significant cartilage degeneration reflecting any degeneration extending through more than 50 % of the cartilage thickness was also measured. Collagen damage across the medial tibial plateau (the most severely affected section of the two halves) was also quantified.
(§3) Osteophytes and femoral cartilage degeneration were analyzed as detailed in Additional file 1. Scoring of the osteophytes and categorization into small, medium, and large was performed using an ocular micrometer. The actual osteophyte measurement (tidemark to farthest distance point extending toward the synovium) was also recorded. The femoral cartilage degeneration score and the three-zone sum of the tibial cartilage degeneration scores (mean of three levels) were summed to create a total cartilage degeneration score. The mean osteophyte score for each joint was added to this value to create a total joint score. […]
(§4) Histopathology MMT/MCLT Model

MMT/MCLT rat model of OA [2] = assay: MMT/MCLT trial 2 histopathology (same doses); type: in vivo; conditions: mean
Excerpt: as §1, §2, §3, §4

[3] = tacrolimus 30 ng i.a., clonidine 100 μg/kg s.c.

## Clc1cccc(Cl)c1N=C1NCCN1 [Clonidine]
MMT/MCLT rat model of OA [1]; mean
  Bone score: 2.88
  Depth ratio any matrix change, mean: 0.35
  Depth ratio any matrix change, zone 2: 0.16
  Femoral cartilage degeneration score: 1.29 and 1.29 ± 0.20
  Tibial cartilage degeneration score, 3-zone total: 6.13
  Tibial cartilage degeneration score, zone 1: 4.13
  Tibial cartilage degeneration score, zone 2: 2.00
  Tibial cartilage degeneration score, zone 3: 0.00
  Tibial cartilage degeneration width, significant: 691.67 µm
  Tibial cartilage degeneration width, total: 1175.00 µm
  Tibial osteophyte measure: 540.00 µm
  Tibial osteophyte score: 3.92
  Total joint score: 11.33 and 11.33 ± 0.55
  Total joint score w/o femur: 10.04
MMT/MCLT rat model of OA [1]; vs saline group
  % decrease, bone score: 12%
  % decrease, depth ratio mean: 2%
  % decrease, depth ratio zone 2: 14%
  % decrease, femoral cartilage degeneration score: 30%
  % decrease, osteophyte measure: -5%
  % decrease, osteophyte score: 0%
  % decrease, significant degeneration width: 5%
  % decrease, tibial score 3-zone total: 6%
  % decrease, tibial score zone 1: 4%
  % decrease, tibial score zone 2: 9%
  % decrease, tibial score zone 3: 100%
  % decrease, total degeneration width: 10%
  % decrease, total joint score: 8%
  % decrease, total joint score w/o femur: 4%
MMT/MCLT rat model of OA [2]; i.a., tacrolimus 15 ng
  Femoral cartilage degeneration score: 0.67 ± 0.23
  Total joint score: 9.13 ± 0.54
MMT/MCLT rat model of OA [2]; [3]
  Femoral cartilage degeneration score: 0.77 ± 0.28
  Total joint score: 11.03 ± 0.61
